The record followed here is ChEMBL document CHEMBL1150752, “Inhibition of cow's milk xanthine oxidase by flavonoids” (J Nat Prod, 1988).

Each structure is given as a SMILES string.

Xanthine dehydrogenase/oxidase, sequence (P80457 whole entry): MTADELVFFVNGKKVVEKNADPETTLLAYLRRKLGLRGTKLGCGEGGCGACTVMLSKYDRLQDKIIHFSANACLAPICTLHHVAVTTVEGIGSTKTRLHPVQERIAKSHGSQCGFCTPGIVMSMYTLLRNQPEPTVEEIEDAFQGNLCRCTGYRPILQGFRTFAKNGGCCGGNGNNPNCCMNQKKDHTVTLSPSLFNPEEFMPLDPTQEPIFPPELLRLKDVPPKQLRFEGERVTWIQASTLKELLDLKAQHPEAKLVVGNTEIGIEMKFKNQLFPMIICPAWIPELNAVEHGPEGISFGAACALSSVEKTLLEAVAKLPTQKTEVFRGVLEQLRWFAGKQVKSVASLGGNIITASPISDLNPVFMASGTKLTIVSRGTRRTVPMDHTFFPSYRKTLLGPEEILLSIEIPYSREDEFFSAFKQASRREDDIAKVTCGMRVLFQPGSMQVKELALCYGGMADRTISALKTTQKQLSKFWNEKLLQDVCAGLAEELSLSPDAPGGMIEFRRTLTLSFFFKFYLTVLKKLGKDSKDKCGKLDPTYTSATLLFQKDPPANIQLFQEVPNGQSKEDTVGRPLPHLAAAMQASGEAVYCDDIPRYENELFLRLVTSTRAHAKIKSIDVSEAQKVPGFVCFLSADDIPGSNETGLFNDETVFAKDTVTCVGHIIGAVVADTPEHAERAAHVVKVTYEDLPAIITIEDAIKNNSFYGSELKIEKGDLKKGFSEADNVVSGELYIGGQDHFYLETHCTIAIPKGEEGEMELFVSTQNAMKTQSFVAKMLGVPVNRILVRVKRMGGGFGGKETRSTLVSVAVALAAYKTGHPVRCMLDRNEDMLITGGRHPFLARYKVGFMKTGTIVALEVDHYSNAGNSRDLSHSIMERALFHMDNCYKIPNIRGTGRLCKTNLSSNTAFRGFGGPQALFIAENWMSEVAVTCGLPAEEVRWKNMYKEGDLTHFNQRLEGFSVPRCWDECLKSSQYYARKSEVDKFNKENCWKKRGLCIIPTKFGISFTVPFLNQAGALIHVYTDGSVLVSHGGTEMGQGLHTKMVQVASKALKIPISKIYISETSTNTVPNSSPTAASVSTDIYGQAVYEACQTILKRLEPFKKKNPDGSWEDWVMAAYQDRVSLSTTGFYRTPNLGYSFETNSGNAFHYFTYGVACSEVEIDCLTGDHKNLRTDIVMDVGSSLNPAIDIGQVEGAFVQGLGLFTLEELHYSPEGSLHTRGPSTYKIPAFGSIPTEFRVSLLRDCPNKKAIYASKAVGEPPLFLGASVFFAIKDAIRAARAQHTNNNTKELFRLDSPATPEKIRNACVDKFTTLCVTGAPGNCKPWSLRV

The experiment concerns the target Xanthine dehydrogenase/oxidase (Bos taurus, UniProt P80457). Kind of experiment: Inhibition of cow milk xanthine oxidase at 50 ug/mL. As to conditions: cattle.
As for `CC(=O)Oc1cc(OC(C)=O)c2c(=O)c(OC(C)=O)c(-c3ccc(OC(C)=O)c(OC(C)=O)c3)oc2c1`, the inhibition (in general, the share of the control response that was lost under treatment) at 50 µg/mL is 0%.

Regarding `COc1ccc(-c2cc(=O)c3c(O)cc(O[C@@H]4O[C@H](CO[C@@H]5OC[C@@H](O)[C@@H](O)[C@@H]5O)[C@@H](O)[C@H](O)[C@H]4O)cc3o2)cc1O`, 50 µg/mL produced 30.5% inhibition. Take `O=C(O[C@H]1[C@H](Oc2c(-c3ccc(O)c(O)c3)oc3cc(O)cc(O)c3c2=O)O[C@H](CO)[C@@H](O)[C@@H]1O)c1cc(O)c(O)c(O)c1`: the inhibition at 50 µg/mL is 21%.

For `O=c1c(O)c(-c2ccc(O)cc2)oc2cc(O[C@@H]3O[C@H](CO)[C@@H](O)[C@H](O)[C@H]3O)cc(O)c12`, testing at 50 µg/mL gave an inhibition of 0%. The figure for `O=c1cc(-c2ccc(O)c(O)c2)oc2cc(O[C@@H]3O[C@H](CO)[C@@H](O)[C@H](O)[C@H]3O)c([C@@H]3O[C@H](CO)[C@@H](O)[C@H](O)[C@H]3O)c(O)c12` is 0%; for `CC(=O)Oc1cc(OC(C)=O)c2c(=O)c(OC(C)=O)c(-c3cc(OC(C)=O)c(OC(C)=O)c(OC(C)=O)c3)oc2c1` it is 13.6%; for `CC(=O)Oc1ccc(-c2cc(=O)c3c(OC(C)=O)c(OC(C)=O)c(OC(C)=O)cc3o2)cc1` it is 0%. For the molecule `COc1cc2oc(-c3ccc(O[C@@H]4O[C@H](CO)[C@@H](O)[C@H](O)[C@H]4O)c(O)c3)cc(=O)c2c(O)c1OC`, the inhibition at 50 µg/mL stood at 0%.

`COc1cc(-c2cc(=O)c3c(O)c(OC)c(OC)cc3o2)ccc1O[C@@H]1O[C@H](CO)[C@@H](O)[C@H](O)[C@H]1O` displayed an inhibition at 50 µg/mL of 0%. Regarding `COc1ccc(-c2cc(=O)c3c(O)cc(O[C@@H]4O[C@H](CO)[C@@H](O)[C@H](O)[C@H]4O)cc3o2)cc1O`, the inhibition at 50 µg/mL turned out to be 28.9%.

`COc1cc(-c2cc(=O)c3c(O)cc(O[C@H]4O[C@@H](C(=O)O)[C@H](O)[C@@H](O)[C@@H]4O)cc3o2)ccc1O` yielded an inhibition at 50 µg/mL of 0.3%.

In turn, `CC(=O)Oc1cc(OC(C)=O)c2c(=O)cc(-c3ccc(OC(C)=O)c(OC(C)=O)c3)oc2c1` had an inhibition at 50 µg/mL of 47.7%. With `O=C1c2c(O)cc(O)cc2O[C@H](c2ccc(O)c(O)c2)[C@H]1O` [(+)-TAXIFOLIN] the figure was 17.8%.

The molecule `COc1ccc(-c2cc(=O)c3c(O)cc(O[C@@H]4O[C@H](CO[C@@H]5O[C@@H](C)[C@H](O)[C@@H](O)[C@H]5O)[C@@H](O)[C@H](O)[C@H]4O)cc3o2)cc1` [ACACIIN] displayed an inhibition at 50 µg/mL of 15.1%. The figure for `O=c1cc(-c2ccc(O)cc2)oc2cc(O[C@@H]3O[C@H](CO)[C@@H](O)[C@H](O)[C@H]3O)cc(O)c12` [APIGETRIN] is 13.9%; for `C[C@@H]1O[C@@H](O[C@H]2C(=O)c3c(O)cc(O)cc3O[C@@H]2c2ccc(O)c(O)c2)[C@H](O)[C@H](O)[C@H]1O` [ASTILBIN] it is 0%; for `O=c1c(O[C@@H]2O[C@@H](CO)[C@H](O)[C@H]2O)c(-c2ccc(O)c(O)c2)oc2cc(O)cc(O)c12` [AVICULARIN] it is 30.8%. The figure for `COc1cc2oc(-c3ccccc3)cc(=O)c2c(OC)c1OC` [BAICALEIN TRIMETHYL ETHER] is 22%. The figure for `COc1cc(-c2cc(=O)c3c(O)cc(O)cc3o2)ccc1O` [CHRYSOERIOL] is 61.5%.

In turn, `COc1cc(-c2cc(=O)c3c(O)c(OC)c(OC)cc3o2)ccc1O` [CIRSILENEOL] had an inhibition at 50 µg/mL of 1%. The figure for `COc1cc2oc(-c3ccc(O)c(O)c3)cc(=O)c2c(O)c1OC` [CIRSILIOL] is 0.5%; for `COc1cc2oc(-c3ccc(O[C@@H]4O[C@H](CO)[C@@H](O)[C@H](O)[C@H]4O)cc3)cc(=O)c2c(O)c1OC` [CIRSIMARIN] it is 12.2%. With `COc1cc2oc(-c3ccc(O)cc3)cc(=O)c2c(O)c1OC` [CIRSIMARITIN] the figure was 0%; with `O=c1c(-c2ccc(O)cc2)coc2cc(O)ccc12` [DAIDZEIN], 0%; with `O=c1c(-c2ccc(O)cc2)coc2cc(O[C@@H]3O[C@H](CO)[C@@H](O)[C@H](O)[C@H]3O)ccc12` [DAIDZIN], 0%. The figure for `COc1ccc(-c2cc(=O)c3c(O)cc(O[C@@H]4O[C@H](CO[C@@H]5O[C@@H](C)[C@H](O)[C@@H](O)[C@H]5O)[C@@H](O)[C@H](O)[C@H]4O)cc3o2)cc1O` [DIOSMIN] is 0%; for `COc1ccc(-c2cc(=O)c3c(O)c([C@@H]4O[C@H](CO)[C@@H](O)[C@H](O)[C@H]4O)c(OC)cc3o2)cc1` [EMBIGENIN] it is 33.5%. Consider `COc1ccc(-c2cc(=O)c3c(O)c([C@H]4O[C@H](CO)[C@@H](O)[C@H](O)[C@H]4O[C@H]4O[C@H](C)[C@@H](O)[C@H](O)[C@@H]4O)c(OC)cc3o2)cc1` [EMBININ], for which testing at 50 µg/mL gave an inhibition of 22.8%.

`O=C1C[C@@H](c2ccc(O)c(O)c2)Oc2cc(O)cc(O)c21` [ERIODICTYOL] came in with an inhibition at 50 µg/mL of 47.8%.

The molecule `COc1c(O)cc2oc(-c3ccc(O)c(O)c3)cc(=O)c2c1O` [EUPAFOLIN] registered an inhibition at 50 µg/mL of 49%. The figure for `O=c1cc(-c2ccccc2)oc2ccccc12` [FLAVONE] is 15.4%. The figure for `COc1ccc(-c2coc3cc(O)ccc3c2=O)cc1` [FORMONONETIN] is 17.6%. In turn, `O=C1c2ccc(O)cc2O[C@H](c2ccc(O)c(O)c2)[C@H]1O` [FUSTIN] came in with an inhibition at 50 µg/mL of 27.2%. With `O=c1c(-c2ccc(O)cc2)coc2cc(O)cc(O)c12` [GENISTEIN] the figure was 0%; with `O=c1c(-c2ccc(O)cc2)coc2cc(O[C@@H]3O[C@H](CO)[C@@H](O)[C@H](O)[C@H]3O)cc(O)c12` [GENISTIN], 0.8%; with `O=c1c(O[C@@H]2O[C@H](CO)[C@H](O)[C@H](O)[C@H]2O)c(-c2ccc(O)c(O)c2)oc2cc(O)cc(O)c12` [HYPEROSIDE], 43%.

Regarding `COc1cc(-c2coc3cc(O[C@@H]4O[C@H](CO)[C@@H](O)[C@H](O)[C@H]4O)c(OC)c(O)c3c2=O)cc(O)c1OC` [IRIDIN], the inhibition at 50 µg/mL is 0%. The figure for `COc1cc(-c2coc3cc(O)c(OC)c(O)c3c2=O)cc(O)c1OC` [IRIGENIN] is 0%; for `COc1cc(-c2coc3cc4c(c(OC)c3c2=O)OCO4)cc(OC)c1OC` [IRISFLORENTIN] it is 0%. With `COc1c2c(cc3occ(-c4ccc(O)cc4)c(=O)c13)OCO2` [IRISOLONE] the figure was 0%.

For the molecule `COc1ccc(-c2coc3cc(O)c(OC)c(O)c3c2=O)cc1O` [IRISTECTORIGENIN A], at 50 µg/mL the inhibition was 0%.

The molecule `O=c1cc(-c2ccc(O)c(O)c2)oc2cc(O)c([C@@H]3O[C@H](CO)[C@@H](O)[C@H](O)[C@H]3O)c(O)c12` [ISOORIENTIN] showed an inhibition at 50 µg/mL of 25.2%.

In turn, `COc1cc(-c2oc3cc(O)cc(O)c3c(=O)c2O)ccc1O` [ISORHAMNETIN] returned an inhibition at 50 µg/mL of 49%. Molecule `O=c1c(O[C@@H]2O[C@@H](CO)[C@H](O)[C@H]2O)c(-c2ccc(O)cc2)oc2cc(O)cc(O)c12` [JUGLANIN] had an inhibition at 50 µg/mL of 0%. The figure for `COc1cc2oc(-c3ccc(O)cc3)c(O)c(=O)c2c(O)c1[C@@H]1O[C@H](CO)[C@@H](O)[C@H](O)[C@H]1O` [KEYAKININ] is 0%. Molecule `O=C1C[C@@H](c2ccc(O[C@@H]3O[C@H](CO)[C@@H](O)[C@H](O)[C@H]3O)cc2)Oc2cc(O)ccc21` [LIQUIRITIN] displayed an inhibition at 50 µg/mL of 18%. With `O=C1C[C@@H](c2ccc(O)cc2)Oc2cc(O)ccc21` [LIQUIRTIGENIN] the figure was 100%; with `C[C@@H]1O[C@@H](O[C@H]2[C@H](Oc3cc(O)c4c(=O)cc(-c5ccc(O)c(O)c5)oc4c3)O[C@H](CO)[C@@H](O)[C@@H]2O)[C@H](O)[C@H](O)[C@H]1O` [LONICERIN], 20.1%. As to `COc1cc(-c2oc3cc(O)cc(O)c3c(=O)c2O[C@@H]2O[C@H](CO[C@@H]3O[C@@H](C)[C@H](O)[C@@H](O)[C@H]3O)[C@@H](O)[C@H](O)[C@H]2O)ccc1O` [NARCISSIN], at 50 µg/mL the inhibition was 22.2%.

Take `O=c1cc(-c2ccc(O)c(O)c2)oc2c([C@@H]3O[C@H](CO)[C@@H](O)[C@H](O)[C@H]3O)c(O)cc(O)c12` [ORIENTIN]: the inhibition at 50 µg/mL came out at 15.3%. With `COc1ccc(-c2cc(=O)c3c(O)c(OC)c(O)cc3o2)cc1` [PECTOLINARIGENIN] the figure was 32.1%. Regarding `COc1ccc(-c2cc(=O)c3c(O)c(OC)c(O[C@@H]4O[C@H](CO[C@@H]5O[C@@H](C)[C@H](O)[C@@H](O)[C@H]5O)[C@@H](O)[C@H](O)[C@H]4O)cc3o2)cc1` [PECTOLINARIN], the inhibition at 50 µg/mL is 11.5%. On to `CC(C)=CCc1c(O[C@@H]2O[C@H](CO)[C@@H](O)[C@H](O)[C@H]2O)cc(O)c2c1O[C@H](c1ccc(O)cc1)[C@@H](O)C2=O` [PHELLAMURIN], for which the inhibition at 50 µg/mL was 0%. With `COc1ccc([C@@H]2CC(=O)c3c(O)cc(O[C@@H]4O[C@H](CO)[C@@H](O)[C@H](O)[C@H]4O[C@@H]4O[C@@H](C)[C@H](O)[C@@H](O)[C@H]4O)cc3O2)cc1` [PONCIRIN] the figure was 0%. `O=C1C[C@@H](c2ccc(O)cc2)Oc2cc(O[C@@H]3O[C@H](CO)[C@@H](O)[C@H](O)[C@H]3O)cc(O)c21` [PRUNIN] came in with an inhibition at 50 µg/mL of 4.2%.

On to `O=C(O)[C@H]1O[C@@H](Oc2c(-c3ccc(O)c(O)c3)oc3cc(O)cc(O)c3c2=O)[C@H](O)[C@@H](O)[C@@H]1O` [QUERCETIN GLUCURONIDE], for which at 50 µg/mL the inhibition was 36.5%. The figure for `O=c1c(O)c(-c2ccc(O)c(O)c2)oc2cc(O[C@@H]3O[C@H](CO)[C@@H](O)[C@H](O)[C@H]3O)cc(O)c12` [QUERCIMERITRIN] is 0%; for `O=c1c(O[C@@H]2OC[C@@H](O)[C@H](O)[C@H]2O)c(-c2ccc(O)c(O)c2)oc2cc(O)cc(O)c12` [REYNOUTRIN] it is 33.1%. In turn, `C[C@@H]1O[C@@H](O[C@H]2[C@H](Oc3cc(O)c4c(=O)cc(-c5ccc(O)cc5)oc4c3)O[C@H](CO)[C@@H](O)[C@@H]2O)[C@H](O)[C@H](O)[C@H]1O` [RHOIFOLIN] gave an inhibition at 50 µg/mL of 12.9%.

`O=c1c(O)c(-c2cc(O)c(O)c(O)c2)oc2cc(O)ccc12` [ROBINETIN] yielded an inhibition at 50 µg/mL of 82.9%.
